The text below walks through data of EP0411503B1, “Process for identifying and synthesizing binding sites of interacting proteins” (priority 1989, dated 1999).

Where no end group is shown, it is not given here.

The test has as its target peptide HIV-1 gp120. Nature of the test: Affinity HPLC of CD4 peptide on immobilized HIV-1 gp120 peptide. Format: binding. The source says:
The existence of an interaction ability among complementary peptides was verified by affinity HPLC (G. Fassina and I. M. Chaiken, Advances in Chromatogr. 27:250, 1987).
The peptide HIV-1 gp120 was immobilized on a solid support (Eupergit^R C 30n, 800 µmoles/g load capability by controlled density) according to the conditions reported in literature (G. Fassina et al., J. Chromatogr. 376:87, 1986) and an HPLC glass column (80∗ 6.6 mm ID) was loaded with the peptide derivatized support to prepare an affinity column. The total amount of immobilized peptide in the column is 260 µg, as checked from the amino acid analysis of the support. Small amounts (1-10 µg) of CD4 peptide were eluted isochrathically on the column equilibrated by a flow rate of 1.0 ml/min with 0.1 M NH4Ac, pH 5.7.
The eluted solution was analysed by monitoring the optic absorbance.
The extension of the delay on column, which indicates the interaction between the peptides, was correlated to the dissociation constant Km/p of the binding according to the equation: 1/(V-Vo ) = Km/p /MT +[P]T /MT [formula] where V is the elution volume of the eluted peptide, Vo is void volume of the column, MT is the total immobilized peptide, [P]T is the eluted peptide, and Km/p is the dissociation constant of the binding. […]

Take “GPSKLNDRADS [peptide CD4, NH2-GPSKLNDRADSCOOH]”: the Kd (immobilized HIV-1 gp120 peptide, 0.1 M NH4Ac, pH 5.7, extrapolation at concentration zero of peptide, read-out: dissociation constant) is 80 µM.
Regarding NH2-APPISGOIRSS-COOH [HIV-1 gp120], the “binding in competitive binding assay” value (1 mM of HIV-1 gp120 added to the buffer) is recorded as “completely inhibited”.
